Positions of bridges follow the written chain, without caps; N, C: chain ends. Non-standard residues stand in square brackets, D forms with d. Residues, ends and D or L forms follow the SMILES beside them. *: point of attachment. 5FAM = O=C1OC2(c3ccc(O)cc3Oc3cc(O)ccc32)c2ccc(C(=O)*)cc21; βAla = NCCC(=O)O
Molecular target: outward-facing TmrA^EQB trapped with Mg-ATP (Thermus thermophilus, UniProt Q72J04+Q72J05, E523Q)
Assay: Conformation-specific binding by fluorescence anisotropy, OF conformer
Settings: fluorescence polarization, IF TmrAB vs ATP-trapped OF TmrA^EQB
Excerpt: ABC transport complexes such as TmrAB run through multiple conformational states along the ATP hydrolysis cycle to drive unidirectional substrate transport ([Hofmann et al., 2019]; [Stefan et al., 2020]). Within the substrate translocation cycle, two major conformers, inward-facing (IF) and outward-facing (OF), were identified. To investigate whether CPs favor one of these conformers, we probed the binding of CP^Fs by fluorescence polarization analysis. […] In the latter case, the interaction studies were performed immediately after the IF-to-OF switch by incubation with ATP for 5 min at 45°C. To exclude an OF-to-IF return (τ1/2 of 25 min) ([Stefan et al., 2020]), the fluorescence anisotropy was recorded only within the first minute of incubation.
Figure 5. […] Immediately after, the fluorescence anisotropy was assayed at λex/em = 485/520 nm. The difference in fluorescence polarization was normalized to free and fully bound CP^F. Data were fitted by a one-site binding model. […] Occluded nucleotides were analyzed by thin layer chromatography and autoradiography. […] (D) Stably occluded nucleotides, [α^32P]-ATP and [α^32P]-ADP, were quantified by autoradiography. […] The difference in fluorescence polarization was normalized to unbound (0%) and 100% bound CP^F. Data were fitted by a one-site binding model. Fluorescence anisotropy was recorded at λex/em = 485/520 nm. […]

| SMILES | Conformational preference of binding, IF vs OF |
| --- | --- |
| CC(C)[C@@H]1NC(=O)[C@H](Cc2ccccc2)NC(=O)[C@@H]2CCCN2C(=O)[C@H](CC(N)=O)NC(=O)[C@H](Cc2c[nH]c3ccccc23)NC(=O)[C@H](C(C)C)NC(=O)[C@H](Cc2ccc(O)cc2)NC(=O)[C@H](Cc2ccccc2)NC(=O)[C@@H](Cc2ccc(O)cc2)NC(=O)CSC[C@@H](C(=O)NCC(=O)N[C@@H](CO)C(=O)NCCC(=O)NCCC(=O)N[C@@H](CCCNC(=N)N)C(=O)N[C@@H](CCCCNC(=O)c2ccc3c(c2)C(=O)OC32c3ccc(O)cc3Oc3cc(O)ccc32)C(N)=O)NC(=O)[C@H](CCCCN)NC(=O)[C@H](Cc2ccccc2)NC1=O [CP14] ({CH2CO}-[dY]FYVWNPFVFKCGS[βAla][βAla]RK(5FAM)-NH2; thioether N-12; C-terminus assumed) | preference for the OF conformer |
| CC[C@H](C)[C@@H]1NC(=O)[C@H](Cc2c[nH]c3ccccc23)NC(=O)[C@H](CC(N)=O)NC(=O)[C@H](C)NC(=O)[C@H](CO)NC(=O)[C@@H]2CCCN2C(=O)[C@H](CC(=O)O)NC(=O)[C@@H](Cc2ccc(O)cc2)NC(=O)CSC[C@@H](C(=O)NCC(=O)N[C@@H](CO)C(=O)NCCC(=O)NCCC(=O)N[C@@H](CCCNC(=N)N)C(=O)N[C@@H](CCCCNC(=O)c2ccc3c(c2)C(=O)OC32c3ccc(O)cc3Oc3cc(O)ccc32)C(N)=O)NC(=O)[C@H]([C@@H](C)O)NC(=O)[C@H](CC(C)C)NC(=O)[C@H](CC(C)C)NC(=O)[C@H](C(C)C)NC(=O)[C@H](CC(C)C)NC1=O [CP13] ({CH2CO}-[dY]DPSANWILVLLTCGS[βAla][βAla]RK(5FAM)-NH2; thioether N-14; C-terminus assumed) | preference for the OF conformer |
